Tests used:
[1] = test system: Mus musculus; experiment: In vivo nonfasting triglyceride in db/db mice after oral treatment; format: functional
[2] = molecular target: T1, Peroxisome proliferator-activated receptor alpha (Homo sapiens, UniProt Q07869); experiment: (§1) In vitro transactivation of human Peroxisome proliferator activated receptor alpha (hPPARalpha)
T1 sequence (Q07869 whole entry): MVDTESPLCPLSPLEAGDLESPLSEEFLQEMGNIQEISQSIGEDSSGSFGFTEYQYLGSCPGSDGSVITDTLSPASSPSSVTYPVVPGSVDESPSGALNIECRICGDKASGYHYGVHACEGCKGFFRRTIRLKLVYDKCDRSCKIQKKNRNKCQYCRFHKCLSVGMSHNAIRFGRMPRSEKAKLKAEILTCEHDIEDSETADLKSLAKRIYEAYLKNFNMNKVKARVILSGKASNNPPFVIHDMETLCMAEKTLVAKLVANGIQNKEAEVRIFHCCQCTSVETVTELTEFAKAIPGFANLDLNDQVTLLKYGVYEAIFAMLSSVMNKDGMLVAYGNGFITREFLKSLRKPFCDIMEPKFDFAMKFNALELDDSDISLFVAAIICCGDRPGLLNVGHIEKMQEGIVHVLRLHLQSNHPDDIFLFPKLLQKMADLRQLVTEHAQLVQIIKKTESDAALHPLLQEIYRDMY

[3] = test system: Mus musculus; experiment: In vivo insulin effect in db/db mice after oral treatment; format: functional
[4] = Partition coefficient (logP); format: physicochemical; conditions: octanol/water
[5] = test system: Mus musculus; experiment: In vivo nonfasting blood glucose in db/db mice after oral treatment; format: functional
[6] = molecular target: T2, Peroxisome proliferator-activated receptor alpha (Rattus norvegicus) (UniProt P37230); experiment: (§2) In vitro transactivation of rat Peroxisome proliferator activated receptor alpha; design: concentration or dose not given beside the values
T2 sequence (whole entry): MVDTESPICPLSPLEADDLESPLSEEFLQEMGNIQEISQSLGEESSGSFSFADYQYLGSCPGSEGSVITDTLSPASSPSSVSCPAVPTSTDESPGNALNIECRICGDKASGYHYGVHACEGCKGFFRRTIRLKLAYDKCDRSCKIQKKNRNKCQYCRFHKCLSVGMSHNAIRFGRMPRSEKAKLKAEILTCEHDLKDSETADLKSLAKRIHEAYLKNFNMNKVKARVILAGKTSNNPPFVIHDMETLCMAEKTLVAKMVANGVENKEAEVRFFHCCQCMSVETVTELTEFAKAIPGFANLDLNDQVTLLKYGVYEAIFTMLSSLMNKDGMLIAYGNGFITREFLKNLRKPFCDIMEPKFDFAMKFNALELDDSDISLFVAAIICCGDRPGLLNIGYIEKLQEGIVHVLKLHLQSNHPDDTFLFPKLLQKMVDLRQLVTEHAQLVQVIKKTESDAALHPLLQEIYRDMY

[7] = molecular target: T3, Peroxisome proliferator-activated receptor alpha (Rattus norvegicus, UniProt P37230); experiment: as §2
T3 sequence (P37230 whole entry): T2 sequence (whole entry)

[8] = species on record: Mus musculus; experiment: Area under blood glucose time curve after oral glucose test in mice; format: functional
[9] = molecular target: T4, Peroxisome proliferator-activated receptor alpha (Homo sapiens) (UniProt Q07869); experiment: as §1; design: concentration or dose not given beside the values
T4 sequence (whole entry): T1 sequence (Q07869 whole entry)

[10] = molecular target: T5, Peroxisome proliferator-activated receptor gamma (Homo sapiens, UniProt P37231)
T5 sequence (P37231 whole entry): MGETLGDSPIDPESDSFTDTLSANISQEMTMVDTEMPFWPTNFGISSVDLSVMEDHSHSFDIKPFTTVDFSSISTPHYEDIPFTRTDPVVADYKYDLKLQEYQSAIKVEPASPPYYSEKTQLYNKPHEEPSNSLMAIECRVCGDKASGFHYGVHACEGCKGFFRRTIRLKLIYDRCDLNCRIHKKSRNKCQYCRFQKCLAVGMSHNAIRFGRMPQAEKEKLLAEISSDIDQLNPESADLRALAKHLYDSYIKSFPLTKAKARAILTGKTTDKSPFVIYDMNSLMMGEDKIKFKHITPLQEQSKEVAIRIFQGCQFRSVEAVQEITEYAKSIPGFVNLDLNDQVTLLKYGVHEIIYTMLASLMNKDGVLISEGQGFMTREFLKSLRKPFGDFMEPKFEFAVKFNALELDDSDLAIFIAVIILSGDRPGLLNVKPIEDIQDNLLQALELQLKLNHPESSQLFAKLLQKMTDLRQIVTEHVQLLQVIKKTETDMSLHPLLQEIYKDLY
Description: In vitro transactivation of human Peroxisome proliferator activated receptor gamma

[11] = molecular target: T6, Peroxisome proliferator-activated receptor delta (Homo sapiens, UniProt Q03181); experiment: In vitro transactivation of human Peroxisome proliferator activated receptor delta (hPPARdelta)
T6 sequence (Q03181 whole entry): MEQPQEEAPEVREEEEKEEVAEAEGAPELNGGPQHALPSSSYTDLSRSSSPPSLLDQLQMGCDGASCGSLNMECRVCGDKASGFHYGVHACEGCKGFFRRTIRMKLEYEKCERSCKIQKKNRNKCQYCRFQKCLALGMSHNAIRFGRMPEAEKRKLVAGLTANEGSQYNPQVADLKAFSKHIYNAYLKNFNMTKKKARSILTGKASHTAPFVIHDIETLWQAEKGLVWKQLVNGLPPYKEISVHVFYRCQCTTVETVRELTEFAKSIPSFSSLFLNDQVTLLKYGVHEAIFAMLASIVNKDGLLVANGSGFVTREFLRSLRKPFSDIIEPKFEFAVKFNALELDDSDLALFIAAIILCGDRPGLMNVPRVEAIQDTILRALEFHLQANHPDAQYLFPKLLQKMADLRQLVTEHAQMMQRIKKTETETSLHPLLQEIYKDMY

[12] = Oral half-life in rat after peroral administration; format: ADME, organism-based; conditions: in vivo
[13] = Oral bioavailability in rat; format: ADME, organism-based; conditions: in vivo
[14] = Clearance in rat; format: ADME, organism-based; conditions: in vivo
[15] = Area under the plasma concentration-time curve in rat after peroral administration; format: ADME, organism-based; conditions: po
[16] = Volume of distribution during steady state in rat; conditions: in vivo
[17] = Maximum plasma concentration in rat after peroral administration; format: ADME, organism-based; design: route oral; conditions: po

CC(C)(Oc1ccc(C(=O)c2ccc(Cl)cc2)cc1)C(=O)O [FENOFIBRIC ACID]
ED50 [1]: > 300 mg/kg
Max reduction [1]: 20%
EC50 [2]: 32100 nM
ED50 [3]: 191 mg/kg
Max reduction [3]: 32%
logP [4]: 4.27
ED50 [5]: > 300 mg/kg
Max reduction [5]: 10%
Fold activation [6]: 331%
EC50 [7]: 131 µM
Max reduction [8]: 0%
ED50 ([8]; Mus musculus, Blood, po): > 300 mg/kg
Fold activation [9]: 265%

CCc1ccc(CCOc2ccc(CC3SC(=O)NC3=O)cc2)nc1 (configuration not stated) [PIOGLITAZONE]
ED50 [1]: 27 mg/kg
Max reduction [1]: 21%
ED50 [3]: 15 mg/kg
Max reduction [3]: 54%
ED50 [5]: 2.6 mg/kg
Max reduction [5]: 53%
Max reduction [8]: 39%
ED50 ([8]; Mus musculus, Blood, po): 12 mg/kg

CCCCC[C@H](O)/C=C/[C@@H]1[C@H]2C/C(=C\CCCC(=O)O)C[C@H]2C[C@H]1O [CARBACYCLIN]
EC50 [10]: 7910 nM
EC50 [2]: 960 nM
Fold activation [6]: 15%
EC50 [11]: 1880 nM
Fold activation [9]: 79%

CN(CCOc1ccc(CC2SC(=O)NC2=O)cc1)c1ccccn1 (configuration not stated) [ROSIGLITAZONE]
ED50 [1]: 0.1 mg/kg
Max reduction [1]: 58%
ED50 [3]: 0.1 mg/kg
Max reduction [3]: 43%
logP [4]: 1.91
half-life [12]: 182 min
ED50 [5]: 0.9 mg/kg
Max reduction [5]: 35%
bioavailability [13]: 83%
Max reduction [8]: 16%
ED50 ([8]; Mus musculus, Blood, po): 0.8 mg/kg
clearance [14]: 2.1 mL/min/kg
AUC [15]: 14600 ng·h/mL

Cc1cccc(Nc2cc(Cl)nc(SCC(=O)O)n2)c1C [PIRINIXIC ACID]
ED50 [1]: 3 mg/kg
Max reduction [1]: 32%
ED50 [3]: 15 mg/kg
Max reduction [3]: 45%
ED50 [5]: 2.2 mg/kg
Max reduction [5]: 36%
EC50 [7]: 2.1 µM
ED50 [8]: 4.7 mg/kg
Max reduction [8]: 13%

CCO[C@@H](Cc1ccc(OC/C=C(\C)c2ccc(-c3ccccc3)cc2)cc1)C(=O)O
EC50 [10]: 2030 nM
ED50 [1]: 0.3 mg/kg
Max reduction [1]: 65%
EC50 [2]: 490 nM
Vd [16]: 0.16 L/kg
ED50 [3]: 0.2 mg/kg
Max reduction [3]: 95%
logP [4]: 4.5
Cmax [17]: 9250 ng/mL
half-life [12]: 213 min
ED50 [5]: 0.2 mg/kg
Max reduction [5]: 53%
Fold activation [6]: 166%
bioavailability [13]: 100%
EC50 [7]: 11.1 µM
Max reduction [8]: 50%
ED50 ([8]; Mus musculus, Blood, po): 0.3 mg/kg
clearance [14]: 0.49 mL/min/kg
EC50 [11]: 9550 nM
Fold activation [9]: 158%
AUC [15]: 116000 ng·h/mL

CCO[C@@H](Cc1ccc(OC/C=C(\C)c2ccc(-c3ccc(/C(C)=C/COc4ccc(C[C@H](OCC)C(=O)O)cc4)cc3)cc2)cc1)C(=O)O
EC50 [10]: 320 nM
ED50 [1]: 0.3 mg/kg
Max reduction [1]: 60%
EC50 [2]: 6690 nM
Vd [16]: 0.08 L/kg
ED50 [3]: 0.2 mg/kg
Max reduction [3]: 91%
logP [4]: 4.89
Cmax [17]: 23200 ng/mL
half-life [12]: > 400 min
ED50 [5]: 0.2 mg/kg
Max reduction [5]: 40%
Fold activation [6]: 203%
bioavailability [13]: 58%
EC50 [7]: 19.9 µM
Max reduction [8]: 53%
ED50 ([8]; Mus musculus, Blood, po): 0.4 mg/kg
clearance [14]: 0.04 mL/min/kg
EC50 [11]: 2080 nM
Fold activation [9]: 247%
AUC [15]: 9790 ng·h/mL

CCO[C@@H](Cc1ccc(OC/C=C/C#Cc2ccc(C#C/C=C/COc3ccc(C[C@H](OCC)C(=O)O)cc3)cc2)cc1)C(=O)O
EC50 [10]: 110 nM
ED50 [1]: 0.2 mg/kg
Max reduction [1]: 56%
EC50 [2]: 710 nM
Vd [16]: 0.04 L/kg
ED50 [3]: 0.4 mg/kg
Max reduction [3]: 90%
logP [4]: 4.81
Cmax [17]: 27800 ng/mL
half-life [12]: > 360 min
ED50 [5]: 0.4 mg/kg
Max reduction [5]: 55%
Fold activation [6]: 210%
bioavailability [13]: 100%
EC50 [7]: 6.3 µM
Max reduction [8]: 52%
ED50 ([8]; Mus musculus, Blood, po): 0.9 mg/kg
clearance [14]: 0.1 mL/min/kg
EC50 [11]: 2170 nM
Fold activation [9]: 173%
AUC [15]: 111000 ng·h/mL

CCO[C@@H](Cc1ccc(OC/C=C/C#Cc2ccccc2)cc1)C(=O)O
EC50 [10]: 1130 nM
ED50 [1]: 0.4 mg/kg
Max reduction [1]: 57%
EC50 [2]: 67 nM
Vd [16]: 0.14 L/kg
ED50 [3]: 1 mg/kg
Max reduction [3]: 92%
logP [4]: 3.87
Cmax [17]: 4570 ng/mL
half-life [12]: 122 min
ED50 [5]: 0.4 mg/kg
Max reduction [5]: 54%
Fold activation [6]: 112%
bioavailability [13]: 89%
EC50 [7]: 0.7 µM
Max reduction [8]: 45%
ED50 ([8]; Mus musculus, Blood, po): 1.2 mg/kg
clearance [14]: 0.54 mL/min/kg
EC50 [11]: 6900 nM
Fold activation [9]: 123%
AUC [15]: 62200 ng·h/mL
